Data on three compounds can be found in publication doi:10.64898/2025.12.13.694138, “Structural insights into xyloglucan recognition by an ABC transporter from a Gram-positive, thermophilic bacterium” (bioRxiv, 2025).

Like-named read-outs stand apart in the source and are kept apart here.

What all share (assay): ITC ([…] °C); DSC ΔTm […] °C
What all share (type): binding

The target of assay [1] is T1, Athe_2052 (Caldicellulosiruptor bescii, UniProt B9MLD9).
T1 construct: Athe_2052 without its signal peptide, N-terminal hexa-histidine tag

The target in assay [2] is T1, Athe_2052. The source holds these as a separate data set.
The target of assay [3] is T1, Athe_2052. The source holds these as a separate data set.

T1 sequence (B9MLD9 entry or part of it): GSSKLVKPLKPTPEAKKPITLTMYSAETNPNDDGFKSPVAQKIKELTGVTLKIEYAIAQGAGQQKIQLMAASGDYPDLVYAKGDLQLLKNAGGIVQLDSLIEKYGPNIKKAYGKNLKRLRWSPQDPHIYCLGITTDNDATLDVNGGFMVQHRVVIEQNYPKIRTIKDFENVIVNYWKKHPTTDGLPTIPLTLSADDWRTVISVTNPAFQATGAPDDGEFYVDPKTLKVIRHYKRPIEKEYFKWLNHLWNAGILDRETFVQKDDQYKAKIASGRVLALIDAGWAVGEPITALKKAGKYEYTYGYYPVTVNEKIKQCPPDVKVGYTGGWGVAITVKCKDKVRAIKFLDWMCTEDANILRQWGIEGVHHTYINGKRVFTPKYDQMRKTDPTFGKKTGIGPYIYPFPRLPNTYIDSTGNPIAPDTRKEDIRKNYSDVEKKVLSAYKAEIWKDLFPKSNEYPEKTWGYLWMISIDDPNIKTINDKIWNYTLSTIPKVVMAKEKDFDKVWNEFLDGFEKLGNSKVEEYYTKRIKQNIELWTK

In general, Kd refers to the constant that tells how readily two partners part at equilibrium. Take `OC[C@H]1O[C@@H](O[C@H]2[C@H](O)[C@@H](O)[C@H](O[C@H]3[C@H](O)[C@@H](O)C(O)O[C@@H]3CO)O[C@@H]2CO)[C@H](O)[C@@H](O)[C@@H]1O` (stereo partly drawn) [Cellotriose]: the Kd in assay [1] was determined as 247 nM. In turn, `OC[C@H]1O[C@@H](O[C@H]2[C@H](O)[C@@H](O)[C@H](O[C@H]3[C@H](O)[C@@H](O)[C@H](O[C@H]4[C@H](O)[C@@H](O)C(O)O[C@@H]4CO)O[C@@H]3CO)O[C@@H]2CO)[C@H](O)[C@@H](O)[C@@H]1O` (stereo partly drawn) [Cellotetraose] came in with a Kd in assay [2] of 214 nM. For the compound `OC[C@H]1OC(O)[C@H](O)[C@@H](O)[C@@H]1O[C@@H]1O[C@H](CO[C@H]2OC[C@@H](O)[C@H](O)[C@H]2O)[C@@H](O[C@@H]2O[C@H](CO[C@H]3OC[C@@H](O)[C@H](O)[C@H]3O)[C@@H](O[C@@H]3O[C@H](CO[C@H]4OC[C@@H](O)[C@H](O)[C@H]4O)[C@@H](O)[C@H](O)[C@H]3O)[C@H](O)[C@H]2O)[C@H](O)[C@H]1O` (stereo partly drawn) [XXXG, xyloglucan heptasaccharide], the Kd in assay [3] is 14 nM.
